In patent US20060106042A1, “Substituted heterocyclpyrmidines” (priority 2002, published 2006):
Read-outs that look alike come from different tables or passages of the source.

What was measured:
[1] = logP determination by reversed-phase HPLC (EEC Directive 79/831 Annex V.A8); format: physicochemical; settings: for logP a): acidic range: 0.1% aqueous phosphoric acid/acetonitrile gradient, C18, 43° C.
Description: (a) Mobile phases for the determination of the acidic range: 0.1% aqueous phosphoric acid, acetonitrile; linear gradient from 10% acetonitrile to 90% acteonitrile—the corresponding measurement results in Table 1 are marked^a). […]

Meloidogyne incognita = test: Meloidogyne test (gall formation on lettuce roots); format: in vivo; settings: for pest or weed control at 20 ppm: Meloidogyne incognita, 336 h, after 14 d, nematicidal action by gall formation on lettuce, read-out: Kill rate in % after 14 d; for kill rate: 20 ppm, Meloidogyne test as described
Protocol: (§1) • Solvent: 7 parts by weight of dimethylformamide • Emulsifier: 2 parts by weight of alkylaryl polyglycol ether
To produce a suitable preparation of active compound, 1 part by weight of active compound is mixed with the stated amounts of solvent and emulsifier, and the concentrate is diluted with water to the desired concentration.
Vessels are filled with sand, solution of active compound, Meloidogyne incognita egg/larvae suspension and lettuce seeds. The lettuce seeds germinate and the plants develop. On the roots, galls are formed.
After the desired period of time, the nematicidal action is determined in % using the formation of galls. 100% means that no galls were found; 0% means that the number of galls on the treated plants corresponds to that of the untreated control.

[2] = test system: greenhouse red spider mite (Tetranychus urticae); test: Tetranychus test (OP-resistant/dip treatment); format: in vivo; settings: 168 h, read-out: Kill rate in % after 7 d
Protocol: Tetranychus Test (OP-Resistant/Dip Treatment)
as §1
After the desired period of time, the effect in % is determined. 100% means that all spider mites have been killed; 0% means that none of the spider mites have been killed.

[3] = test system: larvae of the mustard beetle (Phaedon cochleariae); test: Phaedon larvae test (cabbage leaves, dip); format: in vivo; settings: 168 h, after 7 d, cabbage leaves dipped, read-out: Kill rate in % after 7 d
Protocol: as §1
After the desired period of time, the kill in % is determined. 100% means that all beetle larvae have been killed; 0% means that none of the beetle larvae have been killed.

[4] = test system: caterpillars of the armyworm (Spodoptera frugiperda); test: Spodoptera frugiperda test (cabbage leaves, dip); format: in vivo; settings: 168 h, after 7 d, cabbage leaves dipped, read-out: Kill rate in % after 7 d
Protocol: Spodoptera frugiperda Test
as §1
After the desired period of time, the kill in % is determined. 100% means that all caterpillars have been killed; 0% means that none of the caterpillars have been killed.

[5] = reversed-phase HPLC column (C18); acidic range: 0.1% aqueous phosphoric acid/acetonitrile gradient, C18, 43° C.; read-out: logP a)
[6] = 100 ppm, after 7 d, OP-resistant, bean plants dipped

| Compound | chromatographic logP [1, 5] | pest or weed control at 20 ppm (Meloidogyne incognita) [%] | kill rate (Meloidogyne incognita) [%] | also measured |
| --- | --- | --- | --- | --- |
| FC(F)=C(F)CCSc1nccc(-c2nccs2)n1 [Example 12] | 1.56 | 100 |  |  |
| FC(F)=CCCSc1nccc(-c2cccs2)n1 [Example 27] | 3.83 |  |  | pest or weed control at 100 ppm [2, 6]: 100% |
| FC(F)=C(F)CCSc1nccc(-n2cccn2)n1 [Example 22] | 3.27 | 100 |  |  |
| Cc1nn(-c2ccnc(SCCC=C(F)F)n2)cc1Br [Example 82] |  |  | 100 | logP a) [1]: logP '2 4.76^a) |
| Cc1cc(C)n(-c2ccnc(SCCC=C(F)F)n2)n1 [Example 86] |  |  | 100 | logP a) [1]: logP = 3.95^a) |
| FC(F)=C(F)CCSc1nccc(-c2ccc3ccccc3n2)n1 [Example 34] | 4.81 | 100 |  |  |
| FC(F)=CCCSc1nccc(-n2cccc2)n1 [Example 120] |  |  | 100 |  |
| Cc1cc(-c2ccnc(SCCC(F)=C(F)F)n2)c(C)s1 [Example 62] | 4.79 | 100 |  |  |
| FC(F)=CCCSc1nccc(-c2ccsc2)n1 [Example 59] | 3.8 |  |  | pest or weed control at 500 ppm [3]: 100% |
| FC(F)=CCCSc1nccc(-c2nc3ccc(Cl)cc3s2)n1 [Example 45] | 5.57 | 100 |  |  |
| FC(F)=CCCSc1nccc(-n2cnc(Cl)c2Cl)n1 [Example 88] |  |  | 100 | logP a) [1]: logP = 3.57^a) |
| Cc1ccc(-c2ccnc(SCCC=C(F)F)n2)s1 [Example 52] | 4.3 |  |  | pest or weed control at 500 ppm [4]: 100% |
| FC(F)=CCCSc1nccc(-c2cscn2)n1 [Example 48] | 3.14 |  |  | pest or weed control at 500 ppm [4]: 100% |
| Nc1ccn(-c2ccnc(SCCC=C(F)F)n2)n1 [Example 97] |  |  | 100 | logP a) [1]: logP = 2.31^a) |
| FC(F)=CCCSc1nccc(-n2nc3ccccc3n2)n1 [Example 42] | 3.98 |  |  | pest or weed control at 100 ppm [2, 6]: 99% |
| FC(F)=CCCSc1nccc(-c2cccc(Br)n2)n1 [Example 17] | 4.51 |  |  | pest or weed control at 100 ppm [2, 6]: 100% |
| COc1ccc(-c2ccnc(SCCC(F)=C(F)F)n2)nc1 [Example 49] | 2.17 | 100 |  |  |
| FC(F)=CCCSc1nccc(-c2ccc3ccccc3n2)n1 [Example 31] | 4.81 |  |  | pest or weed control at 500 ppm [4]: 100% |
| FC(F)=CCCSc1nccc(-n2cnc(-c3ccccc3)c2)n1 [Example 92] |  |  | 100 | logP a) [1]: logP = 3.45^a) |
| Nc1nn(-c2ccnc(SCCC=C(F)F)n2)cc1Br [Example 93] |  |  | 100 | logP a) [1]: logP = 3.15^a) |
| FC(F)=CCCSc1nccc(-n2cnc(Cl)n2)n1 [Example 109] |  |  | 100 | logP a) [1]: logP = 3.31^a) |
| COc1ccc(-c2ccnc(SCCC=C(F)F)n2)nc1 [Example 50] | 2.12 |  |  | pest or weed control at 500 ppm [4]: 100% |
| FC(F)=CCCSc1nccc(-c2ncccc2Cl)n1 [Example 43] | 3.32 |  |  | pest or weed control at 100 ppm [2, 6]: 99% |
| Cc1nccn1-c1ccnc(SCCC=C(F)F)n1 [Example 107] |  |  | 100 | logP a) [1]: logP = 1.30^a) |
| O=C1CCC(=O)N1c1ccnc(SCCC=C(F)F)n1 [Example 119] |  |  | 100 |  |
| CCOc1cccc(-c2ccnc(SCCC=C(F)F)n2)n1 [Example 20] | 4.91 |  |  | pest or weed control at 500 ppm [4]: 100% |
| FC(F)=C(F)CCSc1nccc(-c2cnccn2)n1 [Example 16] | 2.92 | 100 |  |  |

| Compound | chromatographic logP [1, 5] | pest or weed control at 20 ppm (Meloidogyne incognita) [%] | kill rate (Meloidogyne incognita) [%] | also measured |
| --- | --- | --- | --- | --- |
| FC(F)=CCCSc1nccc(-c2ccncc2)n1 [Example 10] | 1.72 |  |  | pest or weed control at 500 ppm [3]: 100% |
| FC(F)=CCCSc1nccc(-n2ncc3ccccc32)n1 [Example 87] |  |  | 100 | logP a) [1]: logP = 4.26^a) |
| FC(F)=C(F)CCSc1nccc(-n2cccc2)n1 [Example 41] |  | 100 |  |  |
| FC(F)=CCCSc1nccc(-c2cccnc2)n1 [Example 9] | 1.96 | 100 |  | pest or weed control at 100 ppm [2, 6]: 100% |
| FC(F)=CCCSc1nccc(-c2ccc(Cl)s2)n1 [Example 3] | 4.73 | 100 |  | pest or weed control at 500 ppm [3]: 100% |
| [O-][S+](CCC=C(F)F)c1nccc(-c2ccccn2)n1 (centres unmarked) [Example 5] | 1.47 |  |  | pest or weed control at 100 ppm [2]: 100% |
| FC(F)=CCCSc1nccc(-n2cc(Cl)cn2)n1 [Example 24] | 4.13 |  |  | pest or weed control at 500 ppm [3]: 100% |
| CC(C)(C)n1nnc(-c2cnc(SCCC(F)=C(F)F)nc2)n1 [Example 67] | 4.22 | 100 |  | pest or weed control at 500 ppm [3]: 100% |
| CC(C)Oc1cnn(-c2ccnc(SCCC=C(F)F)n2)c1 [Example 85] |  |  | 100 | logP a) [1]: logP = 4.26^a) |
| FC(F)=CCCSc1nccc(-c2cc3ccccc3s2)n1 [Example 53] | 4.87 |  |  | pest or weed control at 500 ppm [4]: 100% |
| FC(F)=CCCSc1nccc(Cl)n1 [Example (II-1), 4-chloro-2-[(4,4-difluoro-3-butenyl)-sulfanyl]-pyrimidine] |  |  |  | chromatographic logP ([1]; reversed-phase HPLC column (C18), pH 2.3, read-out: logP (pH 2.3)): 3.3 |
| FC(F)=CCCSc1nccc(-c2ccc(Br)s2)n1 [Example 51] | 4.77 |  |  | pest or weed control at 500 ppm [4]: 100% |
| N#Cc1cccn1-c1ccnc(SCCC=C(F)F)n1 [Example 104] |  |  | 100 | logP a) [1]: logP = 3.23^a) |
| FC(F)=CCCSc1nccc(-c2cc(-c3ccccc3)ccn2)n1 [Example 32] | 4.77 |  |  | pest or weed control at 100 ppm [2, 6]: 100% |
| FC(F)=CCCSc1nccc(-n2nccn2)n1 [Example 125] |  |  | 100 |  |
| FC(F)=C(F)CCSc1nccc(-c2cc(Cl)sc2Cl)n1 [Example 64] | 5.55 | 100 |  |  |
| CC(C)(C)c1ccnc(-c2ccnc(SCCC=C(F)F)n2)c1 [Example 33] | 4.8 |  |  | pest or weed control at 100 ppm [2, 6]: 100% |
| FC(F)=CCCSc1nccc(-n2cncn2)n1 [Example 112] |  |  | 100 | logP a) [1]: logP = 2.44^a) |
| FC(F)=C(F)CCSc1nccc(-c2ccsc2)n1 [Example 60] | 3.82 | 100 |  |  |
| O=[N+]([O-])c1ncn(-c2ccnc(SCCC=C(F)F)n2)n1 [Example 110] |  |  | 100 | logP a) [1]: logP = 2.95^a) |
| FC(F)=C(F)CCSc1nccc(-c2cccs2)n1 [Example 28] | 3.84 | 100 |  |  |
| FC(F)=C(F)CCSc1nccc(-c2ccc[nH]2)n1 [Example 21] |  | 100 |  |  |
| FC(F)=C(F)CCSc1nccc(-c2cc3ccccc3s2)n1 [Example 57] | 4.85 | 100 |  |  |
| FC(F)=CCCSc1nccc(-c2cc(Cl)sc2Cl)n1 [Example 63] | 5.65 |  |  | pest or weed control at 500 ppm [4]: 100%; pest or weed control at 100 ppm [2]: 100% |
| FC(F)=CCCSc1nccc(-n2nnc3ccccc32)n1 [Example 40] | 3.97 |  |  | pest or weed control at 500 ppm [4]: 100% |
| Cc1cc(=O)[nH]n1-c1ccnc(SCCC=C(F)F)n1 [Example 39] | 2.55 | 100 |  |  |
